Tested on: Hh-signalling cascade
Assay: Inhibition of SHh-induced alkaline phosphatase in C3H10T1/2 cells (Hh-signalling cascade inhibition)
Assay type: cell-based
Conditions: Mus musculus, C3H 10T1/2, half maximal inhibition of SHh (0.3 μg/ml) stimulation of cell alkaline phosphatase
Source text: C3H10T1/2 Cells were used for identification of inhibitors of SHh-protein signaling cascade. SHh-protein activates C3H10T1/2 cells, that leads to their osteogenic differentiation [1) Kinto N., Iwamoto M., Enomoto-Iwamoto M., Noji S., Ohuchi H., Yoshioka H., Kataoka H., Wada Y., Yuhao G., Takahashi H. E., Yoshiki S., Yamaguchi A. Fibroblasts expressing Sonic hedgehog induce osteoblast differentiation and ectopic bone formation. FEBS Lett. 1997; 404(2-3): 319-23. 2) Spinella-Jaegle S., Rawadi G., Kawai S., Gallea S., Faucheu C., Mollat P., Courtois B., Bergaud B., Ramez V., Blanchet A. M., Adelmant G., Baron R., Roman-Roman S. Sonic hedgehog increases the commitment of pluripotent mesenchymal cells into the osteoblastic lineage and abolishes adipocytic differentiation. J. Cell Sci. 2001; 114(Pt 11): 2085-94] and, in particular, to expression enhancement of alkaline phosphatase enzyme.
The cells were cultivated in DMEM medium with 10% embryonal calfish serum in incubator at 37° C., 100% humidity and 5% CO2 content. The cells were placed in 384-well plates and left for night. On the next day the tested compounds in concentration of 10 μM were added to the cells, incubated for 30 min, then recombinant (R & D Systems, USA) SHh protein in concentration of 0.3 μg/ml was added and incubation was continued for 3 days. Cells with DMSO instead of a test compound and cells without SHh protein were used as test control. For determination of the cell alkaline phosphatase activity the cells were lysed in the buffer containing 0.2% Triton-X100, lisates were incubated together with proluminescent substrate CSPD (Applied Biosystems, USA) and the resultant luminescence was measured using reader VICTOR^2V (PerkinElmer, USA).
The ability of the compounds to inhibit Hh-signalling cascade was determined using C3H10T1/2 cells in 384-well plates as described in example 1. The compounds were added in triplicates in various concentrations, prepared by multiple dilution of starting solutions (concentration dependences of cell alkaline phosphatase inhibition induced by the addition of tested compounds are shown in FIG. 1). Activity of the compounds was characterized by their concentrations produced half maximal inhibition of stimulation of cell alkaline phosphatase SHh (IC50).

SMILES	IC50
Cc1nn(C(C)C(=O)N2CCN(c3ccccc3F)CC2)c(=O)c2nn(-c3ccccc3)c(C)c12 (centres unmarked) [I-1013, 2-Phenyl-3,4-dimethyl-6-{1-methyl-2-[4-(2-fluorophenyl)piperazin-1-yl]-2-oxoethyl}-2,6-dihydro-7H-pyrazolo[3,4-d]pyridazin-7-one]	< 0.5 µM
Cc1ccc(-n2nc3c(=O)n(CC(=O)Nc4ccccc4F)nc(C)c3c2C)c(C)c1 [I-1014, 2-[2-(2,4-dimethylphenyl)-3,4-dimethyl-7-oxo-2,7-dihydro-6H-pyrazolo[3,4-c]pyridazin-6-yl]-N-(2-fluorophenyl)acetamide]	< 5 µM
CCC(C(=O)N1CCOCC1)n1nc(C)c2c(C)n(-c3ccccc3)nc2c1=O (centres unmarked) [I-1015, 2-Phenyl-3,4-dimethyl-6-[1-(morpholin-4-ylcarbonyl)propyl]-2,6-dihydro-7H-pyrazolo[3,4-c]pyridazin-7-one]	< 5 µM
Cc1ccc(-n2nc3c(=O)n(CC(=O)NCc4ccc(C)o4)nc(C)c3c2C)cc1 [I-1016, 2-[2-(4-Methylphenyl)-3,4-dimethyl-7-oxo-2,7-dihydro-6H-pyrazolo[3,4-d]pyridazin-6-yl]-N-[(5-methylfuran-2-yl)methyl]acetamide]	< 5 µM
Cc1ccc(-n2nc3c(=O)n(C(C)C(=O)NCCc4cccs4)nc(C)c3c2C)cc1 (centres unmarked) [I-1017, 2-[2-(4-Methylphenyl)-3,4-dimethyl-7-oxo-2,7-dihydro-6H-pyrazolo[3,4-d]pyridazin-6-yl)-N-[2-(thien-2-yl)ethyl]propanamide]	< 5 µM
CCC(C(=O)NC1CC1)n1nc(C)c2c(C)n(-c3ccc(C)cc3)nc2c1=O (centres unmarked) [I-1018, 2-[2-(4-Methylphenyl)-3,4-dimethyl-7-oxo-2,7-dihydro-6H-pyrazolo[3,4-c]pyridazin-6-yl]-N-(cyclopropyl)butanamide]	< 5 µM
Cc1nn(CCC(=O)NCc2cccnc2)c(=O)c2nn(-c3ccccc3)c(C)c12 [I-1019, 3-(2-Phenyl-3,4-dimethyl-7-oxo-2,7-dihydro-6H-pyrazolo[3,4-c]pyridazin-6-yl)-N-(pyridin-3-ylmethyl)propanamide]	< 5 µM
Cc1nn(CCC(=O)NCc2ccco2)c(=O)c2nn(-c3ccccc3)c(C)c12 [I-1020, 3-(2-Phenyl-3,4-dimethyl-7-oxo-2,7-dihydro-6H-pyrazolo[3,4-c]pyridazin-6-yl)-N-(furan-2-ylmethyl)propanamide]	< 5 µM
Cc1nn(CCC(=O)N2CCOCC2)c(=O)c2nn(-c3ccccc3)c(C)c12 [I-1021, 2-Phenyl-3,4-dimethyl-6-(3-(morpholin-4-yl)-3-oxopropyl)-2,6-dihydro-7H-pyrazolo[3,4-c]pyridazin-7-one]	< 5 µM
Cc1nn(CCC(=O)NCc2cccs2)c(=O)c2nn(-c3ccccc3)c(C)c12 [I-1022, 3-(2-Phenyl-3,4-dimethyl-7-oxo-2,7-dihydro-6H-pyrazolo[3,4-c]pyridazin-6-yl)-N-(thien-2-ylmethyl)propanamide]	< 5 µM
Cc1ccc(-n2nc3c(=O)n(CCCC(=O)NCCc4ccco4)nc(C)c3c2C)cc1 [I-1023, 4-[2-(4-Methylphenyl)-3,4-dimethyl-oxo-2,7-dihydro-6H-pyrazolo[3,4-d]pyridazin-6-yl]-N-[2-(furan-2-yl)ethyl]butanamide]	< 50 µM
CCN1CCN(C(=O)CCCn2nc(C)c3c(C)n(-c4ccc(C)cc4)nc3c2=O)CC1 [I-1024, 2-(4-Methylphenyl)-3,4-dimethyl-6-[4-(4-ethylpiperazin-1-yl)-4-oxobutyl]-2,6-dihydro-7H-pyrazolo[3,4-c]pyridazin-7-one]	< 50 µM
Cc1nn(CCCC(=O)N2CCOCC2)c(=O)c2nn(-c3ccccc3)c(C)c12 [I-1025, 2-Phenyl-3,4-dimethyl-6-[4-(morpholin-4-yl)-4-oxobutyl]-2,6-dihydro-2H-pyrazolo[3,4-c]pyridazin-7-one]	< 50 µM
Cc1nn(CCCC(=O)Nc2ccc(C(C)C)cc2)c(=O)c2nn(-c3ccccc3)c(C)c12 [I-1026, 4-(2-Phenyl-3,4-dimethyl-7-oxo-2,7-dihydro-6H-pyrazolo[3,4-d]pyridazin-6-yl)-N-[(1-methylethyl)phenyl]butanamide]	< 50 µM
Cc1cccc(N2CCN(C(=O)CN3C(=O)CSc4c3c(C)nn4-c3ccccc3)CC2C)c1 (centres unmarked) [II-1001, 3-Methyl-4-[2-(3-methyl-4-m-tolylpiperazin-1-yl)-2-oxoethyl]-1-phenyl-1,4-dihydro-pyrazolo[3,4-b][1,4]thiazin-5-one]	< 0.5 µM
Cc1nn(-c2ccccc2)c2c1N(CC(=O)Nc1cccc(C(F)(F)F)c1)C(=O)CS2 [II-1002, 2-(3-Methyl-5-oxo-1-phenyl-5,6-dihydro-1H-pyrazolo[3,4-b][1,4]thiazin-4-yl)-N-(3-trifluoromethylphenyl)acetamide]	< 0.5 µM

SMILES	IC50
Cc1nn(-c2ccccc2)c2c1N(CC(=O)NCc1ccccn1)C(=O)CS2 [II-1003, 2-(3-Methyl-5-oxo-1-phenyl-5,6-dihydro-1H-pyrazolo[3,4-b][1,4]thiazin-4-yl)-N-(pyridin-2-ylmethyl)acetamide]	< 5 µM
COc1ccc(CCNC(=O)CN2C(=O)CSc3c2c(C)nn3-c2ccccc2)cc1OC [II-1005, N-[2-(3,4-Dimethoxyphenyl)ethyl]-2-(3-methyl-5-oxo-1-phenyl-5,6-dihydro-1H-pyrazolo[3,4-b][1,4]thiazin-4-yl)acetamide]	< 50 µM
COc1ccc(CNC(=O)CN2C(=O)CSc3c2c(C)nn3-c2ccccc2)cc1 [II-1007, N-(4-Methoxybenzyl)-2-(3-methyl-5-oxo-1-phenyl-5,6-dihydro-1H-pyrazolo[3,4-b][1,4]thiazin-4-yl)acetamide]	< 50 µM
Cc1nn(-c2ccccc2)c2c1N(CC(=O)NC(C)C)C(=O)CS2 [II-1008, N-Isopropyl-2-(3-methyl-5-oxo-1-phenyl-5,6-dihydro-1H-pyrazolo[3,4-b][1,4]thiazin-4-yl)acetamide]	> 50 µM
Cc1nn(-c2ccccc2)c2c1N(CC(=O)NCCN1CCOCC1)C(=O)CS2 [II-1010, 2-(3-Methyl-5-oxo-1-phenyl-5,6-dihydro-1H-pyrazolo[3,4-b][1,4]thiazin-4-yl)-N-(2-morpholin-4-yl)ethylacetamide]	> 50 µM
CNC(=O)CN1C(=O)CSc2c1c(C)nn2-c1ccccc1 [II-1011, N-Methyl-2-(3-methyl-5-oxo-1-phenyl-5,6-dihydro-1H-pyrazolo[3,4-b][1,4]thiazin-4-yl)acetamide]	> 50 µM
Cc1nn(-c2ccccc2)c2c1N(CC(=O)N1CCN(c3ccc(Cl)cc3)CC1)C(=O)CS2 [II-1012, 4-{2-[4-(4-Chlorophenyl)piperazin-1-yl]-2-oxoethyl}-3-methyl-1-phenyl-1,4-dihydropyrazolo[3,4-b][1,4]thiazin-5-one]	< 0.5 µM
Cc1nn(-c2ccccc2)c2c1N(CC(=O)N1CCCC1)C(=O)CS2 [II-1013, 3-Methyl-4-[2-oxo-2-(pyrrolidin-1-yl)ethyl]-1-phenyl-1,4-dihydropyrazolo[3,4-b][1,4]thiazin-5-one]	> 50 µM
Cc1nn(-c2ccccc2)c2c1N(CCCC(=O)N1CCN(c3ccccc3)CC1)C(=O)CS2 [II-1023, 3-Methyl-4-[4-oxo-4-(4-phenylpiperazin-1-yl)butyl]-1-phenyl-1,4-dihydropyrazolo[3,4-b][1,4]thiazin-5-one]	< 0.5 µM
Cc1nn(-c2ccccc2)c2c1N(CCCC(=O)N1CCN(c3ccccn3)CC1)C(=O)CS2 [II-1025, 3-Methyl-4-[4-oxo-4-((4-pyridin-2-yl)piperazin-1-yl)butyl]-1-phenyl-1,4-dihydropyrazolo[3,4-b][1,4]thiazin-5-one]	< 0.5 µM
COc1ccc(NC(=O)CCCN2C(=O)CSc3c2c(C)nn3-c2ccccc2)cc1 [II-1026, N-(4-Methoxyphenyl)-4-(3-methyl-5-oxo-1-phenyl-5,6-dihydro-1H-pyrazolo[3,4-b][1,4]thiazin-4-yl)butyramide]	< 50 µM
COc1cccc(C(=O)Nc2ccc(-c3cn4ccccc4n3)cc2)c1 [III-1001, N-(4-(Imidazo[1,2-a]pyridin-2-yl)phenyl)-3-methoxybenzamide]	< 0.5 µM
CCC(=O)Nc1ccc(-c2cn3ccccc3n2)cc1 [III-1002, N-(4-(Imidazo[1,2-a]pyridin-2-yl)phenyl)propionamide]	< 50 µM
O=C(Nc1ccc(-c2cn3ccccc3n2)cc1)c1ccncc1 [III-1003, N-(4-(Imidazo[1,2-a]pyridin-2-yl)phenyl)isonicotinamide]	< 0.5 µM
O=C(Nc1ccc(-c2cn3ccccc3n2)cc1)c1cccs1 [III-1004, N-(4-(Imidazo[1,2-a]pyridin-2-yl)phenyl)thiophen-2-carboxamide]	< 5 µM
O=C(Nc1ccc(-c2cn3ccccc3n2)cc1)c1ccc(Cl)cc1 [III-1005, 4-Chloro-N-(4-(imidazo[1,2-a]pyridin-2-yl)phenyl)benzamide]	< 5 µM

From US8486945B2, “Heterocyclic inhibitors of an Hh-signal cascade, medicinal compositions based thereon and methods for treating diseases caused by the aberrant activity of an Hh-signal system” (priority 2007, dated 2013)
